In patent US11827629B2, “CDGSH iron sulfur domain 2 activators and use thereof” (National Health Research Institutes, priority 2021, dated 2023):

Test system: Cisd2 promoter with firefly luciferase reporter
Experiment: Cisd2-luciferase reporter assay in HEK293-CISD2 cells
Type: cell-based
Conditions: Homo sapiens, 24 hours incubation, luciferase luminescence
Procedure: A typical in vitro screening method includes the following steps: (i) obtaining an initial level of Cisd2 in a batch of human embryonic kidney cells 293 (HEK-293 cells) that express Cisd2, (ii) treating the batch of HEK-293 cells with a compound of this invention, and (iii) analyzing the level of Cisd2 after the treatment, thereby determining the potency of the compound as a Cisd2 activator.
Compounds 1-109 were tested for increasing the level of Cisd2 in human embryonic kidney cells 293 (HEK293), a transfected cell line expressing Cisd2, using the Cisd2-luciferase reporter assay as follows.
The transfected HEK293 cells stably expressed Cisd2 promoter with firefly luciferase reporter (HEK293-CISD2). They were kept in Dulbecco's modified Eagle's medium (DMEM) (Gibco, New York, NY, USA). Culture medium was supplemented with 10% heat-inactivated fetal bovine serum (FBS), 2 mM L-Glutamine, 1 mM sodium pyruvate, 0.1% MEM Non-Essential Amino Acids, 1 ug/ml puromycin and 1% penicillin/streptomycin (HyClone, Logan, UT, USA). The cells were maintained at 37° C. in an incubator (Thermo Fisher Scientific, New York, NY, USA) with an atmosphere of 5% CO2. The stably transfected cells were seeded in 384-well plates at a density of 3×10^3 cells/well. After incubation with tested compounds at 37° C. for 24 hours, ONE-Glo™ Luciferase Assay System (Promega, Madison, WI, USA) was added at room temperature for 5 minutes to detect any luciferase activity. Luminescence intensity was registered using plate reader Victor^2V (PerkinElmer, Boston, MA, USA).
EC50 values in this table are presented in three classes, i.e., A: <1 μM, B: 1 μM-5 μM, and C: 5 μM-10 μM.

Compound	EC50 [nM]
O=C(CSc1nccs1)N1Cc2ccccc2C1 [Compound 1, 1-(1,3-dihydro-2H-isoindol-2-yl)-2-(1,3-thiazol-2-ylsulfanyl)ethanone]	< 1000
COc1ccc2c(c1)CN(C(=O)CSc1nccs1)C2 [Compound 2, 1-(5-methoxy-1,3-dihydro-2H-isoindol-2-yl)-2-(1,3-thiazol-2-ylsulfanyl)ethanone]	< 1000
O=C(CSc1nccs1)N1Cc2ccc(O)cc2C1 [Compound 3, 1-(5-hydroxy-1,3-dihydro-2H-isoindol-2-yl)-2-(1,3-thiazol-2-ylsulfanyl)ethanone]	1000 to 5000
O=C(CSc1nccs1)N1Cc2cccc(F)c2C1 [Compound 4, 1-(4-fluoro-1,3-dihydro-2H-isoindol-2-yl)-2-(1,3-thiazol-2-ylsulfanyl)ethanone]	< 1000
O=C(CSc1nccs1)N1Cc2ccc(F)cc2C1 [Compound 5, 1-(5-fluoro-1,3-dihydro-2H-isoindol-2-yl)-2-(1,3-thiazol-2-ylsulfanyl)ethanone]	< 1000
O=C(CSc1nccs1)N1Cc2cc(F)c(F)cc2C1 [Compound 6, 1-(5,6-difluoro-1,3-dihydro-2H-isoindol-2-yl)-2-(1,3-thiazol-2-ylsulfanyl)ethanone]	1000 to 5000
O=C(CSc1nccs1)N1Cc2ccc(Cl)cc2C1 [Compound 7, 1-(5-chloro-1,3-dihydro-2H-isoindol-2-yl)-2-(1,3-thiazol-2-ylsulfanyl)ethanone]	< 1000
O=C(CSc1nccs1)N1Cc2cc(Cl)c(Cl)cc2C1 [Compound 8, 1-(5,6-dichloro-1,3-dihydro-2H-isoindol-2-yl)-2-(1,3-thiazol-2-ylsulfanyl)ethanone]	1000 to 5000
COC(=O)c1ccc2c(c1)CN(C(=O)CSc1nccs1)C2 [Compound 9, methyl 2-[(1,3-thiazol-2-ylsulfanyl)acetyl]-2,3-dihydro-1H-isoindole-5-carboxylate]	< 1000
O=C(CSc1nccs1)N1Cc2ccc([N+](=O)[O-])cc2C1 [Compound 10, 1-(5-nitro-1,3-dihydro-2H-isoindol-2-yl)-2-(1,3-thiazol-2-ylsulfanyl)ethanone]	1000 to 5000
Cc1cnc(SCC(=O)N2Cc3ccccc3C2)s1 [Compound 11, 1-(1,3-dihydro-2H-isoindol-2-yl)-2-[(5-methyl-1,3-thiazol-2-yl)sulfanyl]ethanone]	< 1000

Results, then the compound that gave them:

EC50 [nM]	Compound
< 1000	Cc1cnc(SCC(=O)N2Cc3ccc(F)cc3C2)s1 [Compound 12, 1-(5-fluoro-1,3-dihydro-2H-isoindol-2-yl)-2-[(5-methyl-1,3-thiazol-2-yl)sulfanyl]ethanone]
< 1000	O=C(CSc1ccccn1)N1Cc2ccccc2C1 [Compound 13, 1-(1,3-dihydro-2H-isoindol-2-yl)-2-(pyridin-2-ylsulfanyl)ethanone]
< 1000	COc1ccc2c(c1)CN(C(=O)CSc1ccccn1)C2 [Compound 14, 1-(5-methoxy-1,3-dihydro-2H-isoindol-2-yl)-2-(pyridin-2-ylsulfanyl)ethanone]
1000 to 5000	Nc1ccc2c(c1)CN(C(=O)CSc1ccccn1)C2 [Compound 15, 1-(5-amino-1,3-dihydro-2H-isoindol-2-yl)-2-(pyridin-2-ylsulfanyl)ethanone]
< 1000	O=C(CSc1ccccn1)N1Cc2ccc(F)cc2C1 [Compound 16, 1-(5-fluoro-1,3-dihydro-2H-isoindol-2-yl)-2-(pyridin-2-ylsulfanyl)ethanone]
1000 to 5000	Cc1cccc(SCC(=O)N2Cc3ccccc3C2)n1 [Compound 17, 1-(1,3-dihydro-2H-isoindol-2-yl)-2-[(6-methylpyridin-2-yl)sulfanyl]ethanone]
1000 to 5000	O=C(CSc1cccc(Cl)n1)N1Cc2ccccc2C1 [Compound 18, 2-[(6-chloropyridin-2-yl)sulfanyl]-1-(1,3-dihydro-2H-isoindol-2-yl)ethanone]
1000 to 5000	Cc1nnc(SCC(=O)N2Cc3ccccc3C2)s1 [Compound 19, 1-(1,3-dihydro-2H-isoindol-2-yl)-2-[(5-methyl-1,3,4-thiadiazol-2-yl)sulfanyl]ethanone]
